Assay results taken from patent US8871728B2, “Non-peptide macrocyclic histone deacetylese (HDAC) inhibitors and methods of making and using thereof” (Georgia Tech Research Corporation, priority 2007, dated 2014).
Where two headings read alike, the source gives them in different places.

Legend:
[1] = system: HeLa nuclear extract HDAC1/2; experiment: Fluor de Lys HDAC inhibition, HeLa nuclear extract; format: biochemical, human
Description: (§1) Fluor de Lys™ is a fluorescence based HDAC activity assay comprising a combination of fluorogenic Histone deAcetylase Lysyl substrate and a developer. The kit is a highly sensitive and convenient alternative to radiolabeled, acetylated histones or peptide/HPLC methods for the assay of histone deacetylases. This assay is based on the ability of HeLa nuclear extract, which is enriched in HDAC activity, to mediate the deacetylation of the acetylated lysine side chain of the Fluor de Lys substrate. The assay procedure requires two steps. First, incubation of the HeLa nuclear extract with the Fluor de Lys substrate results in substrate deacetylation and thus sensitizes it to the second step. In the second step, treatment of the deacetylated substrate with the Fluor de Lys developer produces a fluorophore. The substrate-developer reaction, under normal circumstances goes to completion in less than 1 min at 25° C. The kit used was the Fluorimetric Assay/Drug Discovery Kit—AK-500 Manual Fluorescent Assay System available from BIOMOL® International, Plymouth Meeting, Pa.
Each IC50 value was obtained by averaging three independent experiments.

SKMES 1 = experiment: Cell viability, trypan blue exclusion; format: cell-based; settings: Homo sapiens, SK-MES-1
Description: (§2) Most importantly, the compounds we less toxic to untransformed cell-lines (lung fibroblast and HMEC).
(§3) Most importantly, these compounds are less toxic to untransformed cell-lines (lung fibroblast and HMEC) that we have studied to date.

HMEC = experiment: Cell viability, trypan blue exclusion; format: cell-based; settings: Homo sapiens; untransformed cells
Description: as §2, §3

lung fibroblasts = experiment: Cell viability, trypan blue exclusion; format: cell-based; settings: Fibroblast; untransformed cells
Description: as §2, §3

NCI-H69 = experiment: Cell viability, trypan blue exclusion; format: cell-based; settings: Homo sapiens
Description: as §2, §3

DU 145 cells = experiment: Cell viability, trypan blue exclusion; format: cell-based; settings: Homo sapiens
Description: as §2, §3

HDAC8 = HDAC8 (Homo sapiens (Human), UniProt Q9BY41); experiment: Fluor de Lys HDAC8 inhibition; format: biochemical; settings: for IC50: read-out: HDAC 8; for HDAC8: Nuclear Extract Isoform Selectivity: ratio of IC50 HDAC8 to nuclear extract
Sequence of HDAC8 (Q9BY41 whole entry, canonical isoform): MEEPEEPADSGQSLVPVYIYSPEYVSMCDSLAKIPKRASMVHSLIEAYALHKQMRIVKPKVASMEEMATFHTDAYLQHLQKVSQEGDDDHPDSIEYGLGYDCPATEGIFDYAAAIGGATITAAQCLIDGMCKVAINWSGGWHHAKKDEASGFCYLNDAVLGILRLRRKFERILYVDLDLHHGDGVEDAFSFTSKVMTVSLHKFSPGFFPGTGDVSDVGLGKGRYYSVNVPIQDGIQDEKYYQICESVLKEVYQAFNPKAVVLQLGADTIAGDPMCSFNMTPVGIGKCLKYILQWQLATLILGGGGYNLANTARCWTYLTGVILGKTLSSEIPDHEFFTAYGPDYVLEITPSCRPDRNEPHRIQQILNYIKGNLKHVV

[2] = system: Plasmodium falciparum (W2 clone), chloroquine-resistant; experiment: Plasmodium growth inhibition, parasite lactate dehydrogenase assay (Malstat); format: cell-based; settings: for Plasmodium falciparum (W2 clone) IC50: chloroquine-resistant; for S.I. (W2): selective toxicity index, Vero versus W2, value in brackets
Method: (§4) The compounds described herein were also evaluated for parasitic activity against Plasmodium falciparum and Leismania donovani. P. falciparum and L. donovani are the causative parasites of malaria and leishmaniasis, two human diseases which constitute a serious threat to public health in tropical and sub-tropical countries. Antimalarial activity was evaluated in vitro using chloroquine-sensitive (D6, Sierra Leone) and chloroquine-resistant (W2, Indochina) strains of P. falciparum. Antileishmanial activity was evaluated in vitro against the promastigote stage of L. donovani.
(§5) Plasmodium growth inhibition was determined by a parasite lactate dehydrogenase assay using Malstat reagent. Inhibition of viability of the promastigote stage of L. donovani was determined using standard Alamar blue assay, modified to a fluorometric assay.
as §4, with “Macrocyclic histone deacetylase inhibitors” for “The compounds described herein”, “were” for “were also”
as §5

[3] = system: Plasmodium falciparum (D6 clone), chloroquine-sensitive; experiment: as above; format: cell-based; settings: for Plasmodium falciparum (D6 clone) IC50: chloroquine-sensitive; for S.I. D6: selective toxicity index, Vero versus D6
Method: as §4, §5
as §4, with “Macrocyclic histone deacetylase inhibitors” for “The compounds described herein”, “were” for “were also”
as §5

breast cancer (MCF-7) = experiment: Cell viability, MTS colorimetric assay; format: cell-based
Method: (§6) The effect of compounds 56a-e on cancer cell lines: prostate (DU-145), lung (A549), and breast cancer (MCF-7) and a non-transformed cell, human lung fibroblast cell (Hs1.Lu) were also evaluated.

lung (A549) = experiment: Cell viability, MTS colorimetric assay; format: cell-based
Method: as §6

prostate (DU-145) = experiment: Cell viability, MTS colorimetric assay; format: cell-based
Method: as §6

HDAC6 = HDAC6 (Homo sapiens (Human), UniProt Q9UBN7); experiment: Fluor de Lys HDAC6 inhibition; format: biochemical; settings: for IC50: Table 5, read-out: HDAC 6; for HDAC6: Nuclear Extract Isoform Selectivity: ratio of IC50 HDAC6 to nuclear extract
Sequence of HDAC6 (Q9UBN7 whole entry, canonical isoform): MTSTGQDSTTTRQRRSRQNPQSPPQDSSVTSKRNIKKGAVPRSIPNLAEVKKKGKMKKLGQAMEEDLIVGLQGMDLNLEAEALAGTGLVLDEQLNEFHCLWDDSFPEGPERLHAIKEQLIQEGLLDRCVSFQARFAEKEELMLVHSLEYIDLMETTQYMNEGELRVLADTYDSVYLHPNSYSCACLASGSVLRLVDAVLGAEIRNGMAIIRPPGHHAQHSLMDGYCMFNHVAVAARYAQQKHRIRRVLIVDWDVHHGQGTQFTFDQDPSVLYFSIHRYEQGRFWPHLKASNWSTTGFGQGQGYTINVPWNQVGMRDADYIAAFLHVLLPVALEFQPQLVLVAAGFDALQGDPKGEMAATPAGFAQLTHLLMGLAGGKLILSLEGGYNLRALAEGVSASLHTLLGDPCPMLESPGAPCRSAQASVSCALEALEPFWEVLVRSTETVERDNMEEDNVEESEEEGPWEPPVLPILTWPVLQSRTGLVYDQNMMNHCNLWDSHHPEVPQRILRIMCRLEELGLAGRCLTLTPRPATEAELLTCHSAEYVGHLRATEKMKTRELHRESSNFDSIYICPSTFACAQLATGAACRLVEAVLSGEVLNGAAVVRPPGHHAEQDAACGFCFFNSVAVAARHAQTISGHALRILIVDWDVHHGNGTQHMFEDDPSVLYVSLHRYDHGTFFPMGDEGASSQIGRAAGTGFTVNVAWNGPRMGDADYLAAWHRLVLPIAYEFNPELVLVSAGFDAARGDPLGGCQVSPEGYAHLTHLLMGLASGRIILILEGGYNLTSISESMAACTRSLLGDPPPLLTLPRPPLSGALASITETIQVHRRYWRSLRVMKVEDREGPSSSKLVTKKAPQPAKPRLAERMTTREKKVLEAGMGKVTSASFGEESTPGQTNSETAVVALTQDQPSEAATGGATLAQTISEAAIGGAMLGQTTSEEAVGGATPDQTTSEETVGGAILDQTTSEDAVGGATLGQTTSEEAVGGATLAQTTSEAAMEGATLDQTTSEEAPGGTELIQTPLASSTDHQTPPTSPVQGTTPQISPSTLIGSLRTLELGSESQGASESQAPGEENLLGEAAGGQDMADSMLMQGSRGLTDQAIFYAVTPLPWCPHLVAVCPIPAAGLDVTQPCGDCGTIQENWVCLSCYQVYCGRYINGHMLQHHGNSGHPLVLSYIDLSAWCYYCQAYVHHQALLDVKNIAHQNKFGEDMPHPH
Description: as §1
The ketolides 56 were also evaluated for their HDAC inhibitory activity against HDACs 1 and 2 from HeLa cell nuclear extract, HDAC6, and HDAC8 using the Fluor de Lys assay.

[4] = system: promastigote stage of L. donovani; experiment: Antileishmanial Alamar blue fluorometric assay; format: cell-based; settings: promastigotes
Method: as §4, §5
as §4, with “Macrocyclic histone deacetylase inhibitors” for “The compounds described herein”, “were” for “were also”
as §5

[5] = HeLa nuclear extract, average of three independent experiments, Table 4, read-out: HDAC ½
[6] = average of three independent experiments, Table 4
[7] = HDACs 1 and 2 from HeLa cell nuclear extract, Table 5, read-out: Nuclear Extract

SMILES: CC[C@H]1OC(=O)[C@H](C)[C@@H](O)[C@H](C)[C@@H](O[C@@H]2O[C@H](C)C[C@H](N(C)Cc3ccc(-c4cn(CCCCCCCC(=O)NO)nn4)cc3)[C@H]2O)[C@](C)(OC)C[C@@H](C)C(=O)[C@H](C)[C@@H](O)[C@]1(C)O [Compound 28, Descladinose-Clarithromycin-N-Phenyltriazolyloctahydroxamic acid]
- IC50 [1, 5]: 123 nM
- EC50 (SKMES 1): 4450 nM
- EC50 (HMEC): > 10000 nM
- EC50 (lung fibroblasts): > 10000 nM
- EC50 (NCI-H69): 5090 nM
- EC50 (DU 145 cells): 5780 nM
- IC50 (HDAC8; [6]): 4420 nM

SMILES: CC[C@H]1OC(=O)[C@H](C)[C@@H](O[C@H]2C[C@@](C)(OC)[C@@H](O)[C@H](C)O2)[C@H](C)[C@@H](O[C@@H]2O[C@H](C)C[C@H](N(C)Cc3ccc(-c4cn(CCCCCCCCC(=O)NO)nn4)cc3)[C@H]2O)[C@](C)(OC)C[C@@H](C)C(=O)[C@H](C)[C@@H](O)[C@]1(C)O [Compound 29, Clarithromycin-N-Phenyltriazolylnonahydroxamic acid]
- IC50 [1, 5]: 170 nM
- EC50 (SKMES 1): 7120 nM
- EC50 (HMEC): > 10000 nM
- EC50 (lung fibroblasts): > 10000 nM
- EC50 (NCI-H69): 7290 nM
- EC50 (DU 145 cells): 8140 nM
- IC50 (HDAC8; [6]): 10600 nM

SMILES: CCC1OC(=O)C(C)C(=O)C(C)C(OC2OC(C)CC(N(C)Cc3ccc(-c4cn(CCCCCC(=O)NO)nn4)cc3)C2O)C(C)(OC)CC(C)C2=NCCN3C(=O)OC1(C)C3C2C (centres unmarked) [Compound 56a, Tricyclic Ketolide-N-benzyltriazolylhexahydroxamic acid]
- IC50 [1, 7]: 7.77 nM
- Plasmodium falciparum (W2 clone) IC50 [2]: 1.80 µg/mL
- Plasmodium falciparum (D6 clone) IC50 [3]: 0.96 µg/mL
- S.I. D6 [3]: >5.0 (no value)
- IC50 (HDAC8; Table 5): 796 nM
- HDAC8: Nuclear Extract Isoform Selectivity (HDAC8): 102.5
- EC50 (breast cancer (MCF-7)): 1260 nM
- EC50 (lung (A549)): 1170 nM
- EC50 (prostate (DU-145)): 1640 nM
- IC50 (HDAC6): 1180 nM
- HDAC6: Nuclear Extract Isoform Selectivity (HDAC6): 151.9

SMILES: CCC1OC(=O)C(C)C(=O)C(C)C(OC2OC(C)CC(N(C)Cc3ccc(-c4cn(CCCCCCC(=O)NO)nn4)cc3)C2O)C(C)(OC)CC(C)C2=NCCN3C(=O)OC1(C)C3C2C (centres unmarked) [Compound 56b, Tricyclic Ketolide-N-benzyltriazolylheptahydroxamic acid]
- Nuclear Extract (nM) ([1]; HDACs 1 and 2 from HeLa cell nuclear extract, Table 5): single digit nanomolar
- IC50 [1, 7]: 1.03 nM
- Plasmodium falciparum (W2 clone) IC50 [2]: 0.12 µg/mL
- S.I. (W2) [2]: > 39.7
- Plasmodium falciparum (D6 clone) IC50 [3]: 0.14 µg/mL
- S.I. D6 [3]: > 34
- IC50 (HDAC8; Table 5): 545 nM
- HDAC8: Nuclear Extract Isoform Selectivity (HDAC8): 528.7
- EC50 (breast cancer (MCF-7)): 750 nM
- EC50 (lung (A549)): 660 nM
- EC50 (prostate (DU-145)): 820 nM
- IC50 (HDAC6): 729 nM
- HDAC6: Nuclear Extract Isoform Selectivity (HDAC6): 707.5

SMILES: CCC1OC(=O)C(C)C(=O)C(C)C(OC2OC(C)CC(N(C)Cc3ccc(-c4cn(CCCCCCCC(=O)NO)nn4)cc3)C2O)C(C)(OC)CC(C)C2=NCCN3C(=O)OC1(C)C3C2C (centres unmarked) [Compound 56c, Tricyclic Ketolide-N-benzyltriazolyloctahydroxamic acid]
- Antileshmanial activity IC50 [4]: 19 µg/mL
- Antileshmanial activity IC90 [4]: 36 µg/mL
- IC50 [1, 7]: 104 nM
- Plasmodium falciparum (W2 clone) IC50 [2]: 1.50 µg/mL
- S.I. (W2) [2]: > 3.2
- Plasmodium falciparum (D6 clone) IC50 [3]: 1.20 µg/mL
- S.I. D6 [3]: > 4.0
- IC50 (HDAC8; Table 5): 1910 nM
- HDAC8: Nuclear Extract Isoform Selectivity (HDAC8): 18.3
- EC50 (breast cancer (MCF-7)): 1350 nM
- EC50 (lung (A549)): 1640 nM
- EC50 (prostate (DU-145)): 3700 nM
- IC50 (HDAC6): 1710 nM
- HDAC6: Nuclear Extract Isoform Selectivity (HDAC6): 16.4

SMILES: CCC1OC(=O)C(C)C(=O)C(C)C(OC2OC(C)CC(N(C)Cc3ccc(-c4cn(CCCCCCCCC(=O)NO)nn4)cc3)C2O)C(C)(OC)CC(C)C2=NCCN3C(=O)OC1(C)C3C2C (centres unmarked) [Compound 56d, Tricyclic Ketolide-N-benzyltriazolylnonahydroxamic acid]
- Antileshmanial activity IC50 [4]: 14 µg/mL
- Antileshmanial activity IC90 [4]: 32 µg/mL
- IC50 [1, 7]: 164 nM
- Plasmodium falciparum (W2 clone) IC50 [2]: 1.30 µg/mL
- S.I. (W2) [2]: > 3.7
- Plasmodium falciparum (D6 clone) IC50 [3]: 1.20 µg/mL
- S.I. D6 [3]: > 4.0
- IC50 (HDAC8; Table 5): 2860 nM
- HDAC8: Nuclear Extract Isoform Selectivity (HDAC8): 17.5
- EC50 (breast cancer (MCF-7)): 2560 nM
- EC50 (lung (A549)): 2480 nM
- EC50 (prostate (DU-145)): 3890 nM
- IC50 (HDAC6): 1920 nM
- HDAC6: Nuclear Extract Isoform Selectivity (HDAC6): 11.7

SMILES: CCC1OC(=O)C(C)C(=O)C(C)C(OC2OC(C)CC(N(C)Cc3ccc(-c4cn(CCCCCCCCCC(=O)NO)nn4)cc3)C2O)C(C)(OC)CC(C)C2=NCCN3C(=O)OC1(C)C3C2C (centres unmarked) [Compound 56e, Tricyclic Ketolide-N-benzyltriazolyldecahydroxamic acid]
- Antileshmanial activity IC50 [4]: 4.8 µg/mL
- Antileshmanial activity IC90 [4]: 23 µg/mL
- IC50 [1, 7]: 208 nM
- Plasmodium falciparum (W2 clone) IC50 [2]: 0.84 µg/mL
- S.I. (W2) [2]: > 5.7
- Plasmodium falciparum (D6 clone) IC50 [3]: 1.20 µg/mL
- S.I. D6 [3]: > 4.0
- IC50 (HDAC8; Table 5): 4560 nM
- HDAC8: Nuclear Extract Isoform Selectivity (HDAC8): 21.9
- EC50 (breast cancer (MCF-7)): 3680 nM
- EC50 (lung (A549)): 2810 nM
- EC50 (prostate (DU-145)): 4830 nM
- IC50 (HDAC6): 3200 nM
- HDAC6: Nuclear Extract Isoform Selectivity (HDAC6): 15.4
